Earlier results, collected in patent publication US11974997B2, “RORgamma modulators and uses thereof” (Genfit, priority 2017, dated 2024).

Legend:
[1] = administered by injection; cited from earlier work
[2] = administered by injection; cited from earlier work; remark: listed apart in the source

Q: With `Cc1ccc([C@@H](NC(=O)Cc2ccc3oc([C@@H](O)c4c(C)noc4C)cc3c2)c2ccccc2)c(C)c1` [TMP778] as the molecule, how does the “efficacy in psoriasis model” value [1] read?
A: efficacious

Q: Which “efficacy in multiple sclerosis model” value [2] does the source give for `CC(=O)Nc1nc(C)c(S(=O)(=O)Nc2ccc(C(O)(C(F)(F)F)C(F)(F)F)cc2)s1` [SR1001] here?
A: efficacious
